{"source": "patent US9382549B2", "about": "“Glyphosate resistant plants and associated methods” (DOW AGROSCIENCES LLC, priority 2012, dated 2016)", "molecules": {"B1": {"name": "DGT-31 (v1): Streptomyces EPSP synthase (GENBANK YP_004922608.1) (protein)", "chain": "MTVIDIPGSKSVTARALFLAAAADGTTTLLRPLHSDDTEGFTEGLTRLGYAVVREPDRWHIEGRPSGPAAADAEVHCRDGATTARFLPTLAAAAASGTYRFDASAQMRRRPLAPLTEALRTLGVDLRHDGAEGHHPLTIQASGVKGGGLTLDAGESSQYLTALLMLGPLTAEGLRIEVTELVSAPYVEITLAMMRGFGVEVVREGNTFTVPPGGYRATTYAIEPDASTASYFFAAAALTGREVTVPGLGTGALQGDLRFTEVLRRMDADVRTTSDSTTVRSDGRLAGLTVNMRDISDTMPTLAAIAPYASSPVRIEDVANTRVKECDRLEACAQNLRSMGITVRTGPDWIEIHPGTPRPTEIATHGDHRIVMSFAVAGLRTPGMSYDDPGCVRKTFPRFHEEFAAFVERSSAGE", "modifications": "DGT-31 protein"}, "B2": {"name": "DGT-28 v1: native EPSP synthase of Streptomyces sviceus (SEQ ID NO:1), N-terminal 6×His tag, E. coli expressed (protein, listed as Streptomyces sviceus)", "chain": "MRGMPALSLPGSKSITARALFLAAAADGVTTLVRPLRSDDTEGFAEGLVRLGYRVGRTPDTWQVDGRPQGPAVAEADVYCRDGATTARFLPTLAAAGHGTYRFDASPQMRRRPLLPLSRALRDLGVDLRHEEAEGHHPLTVRAAGVEGGEVTLDAGQSSQYLTALLLLGPLTRQGLRIRVTDLVSAPYVEITLAMMRAFGVEVAREGDVFVVPPGGYRATTYAIEPDASTASYFFAAAALTPGAEVTVPGLGTGALQGDLGFVDVLRRMGAEVSVGADATTVRGTGELRGLTANMRDISDTMPTLAAIAPFASAPVRIEDVANTRVKECDRLEACAENLRRLGVRVATGPDWIEIHPGPATGAQVTSYGDHRIVMSFAVTGLRVPGISFDDPGCVRKTFPGFHEAFAELRRGIGS", "modifications": "N-terminal 6xHis tag"}}, "key": {"[1]": {"system": "untransformed B104 maize line", "experiment": "Growth inhibition dosage response of maize cells on glyphosate", "assay_type": "cell-based, Zea mays"}, "T1 Arabidopsis [2]": {"system": "T1 Arabidopsis", "experiment": "dgt-31, dgt-32, dgt-33 v1 T1 Arabidopsis response to glyphosate, visual % injury 2 WAT", "assay_type": "in vivo, Arabidopsis thaliana", "excerpt": "T1 plants were sampled and copy number analysis for the dgt-31, dgt-32, and dgt-33 v1 gene were completed. T1 plants were then assigned to various rates of glyphosate so that a range of copies were among each rate. For Arabidopsis, 26.25 g ae/ha glyphosate is an effective dose to distinguish sensitive plants from ones with meaningful levels of resistance. Elevated rates were applied to determine relative levels of resistance (105, 420, 1680, or 3360 g ae/ha).\nAll glyphosate herbicide applications were made by track sprayer in a 187 L/ha spray volume. Glyphosate used was of the commercial Durango dimethylamine salt formulation (480 g ae/L, Dow AgroSciences, LLC).\nT1 plants selected above were subsequently transplanted to individual pots and sprayed with various rates of commercial glyphosate. Table 15 compares the response of dgt-31, dgt-32, and dgt-33 v1 and control genes to impart glyphosate resistance to Arabidopsis T1 transformants. Response is presented in terms of % visual injury 2 WAT. […] An arithmetic mean and standard deviation is presented for each treatment. The range in individual response is also indicated in the last column for each rate and transformation. Wild-type non-transformed Arabidopsis (cv. Columbia) served as a glyphosate sensitive control. […]"}, "T0 corn": {"system": "T0 corn", "experiment": "T0 dgt-28 corn postemergence glyphosate tolerance", "assay_type": "in vivo, Zea mays", "protocol": "Zea mays dgt-28 transformation events (T0) were allowed to acclimate in the greenhouse and were grown until plants had transitioned from tissue culture to greenhouse growing conditions (i.e., 2-4 new, normal looking leaves had emerged from the whorl). Plants were grown at 27° C. under 16 hour light:8 hour dark conditions in the greenhouse. The plants were then treated with commercial formulations of DURANGO DMA™ (containing the herbicide glyphosate) with the addition of 2% w/v ammonium-sulfate. Herbicide applications were made with a track sprayer at a spray volume of 187 L/ha, 50-cm spray height. T0 plants were sprayed with a range of glyphosate from 280-4480 g ae/ha glyphosate, which is capable of significant injury to untransformed corn lines. A lethal dose is defined as the rate that causes >95% injury to the B104 inbred.\nT0 events of dgt-28 linked with TraP4, TraP5, TraP8 and TraP23 were generated by Agrobacterium transformation and were allowed to acclimate under controlled growth chamber conditions until 2-4 new, normal looking leaves had emerged from the whorl. Plants were assigned individual identification numbers and sampled for copy number analyses of both dgt-28 and aad-1. Based on copy number analyses, plants were selected for protein expression analyses. […]"}, "[3]": {"system": "T1 wheat, Bobwhite MPB26RH", "experiment": "Wheat detailed phenotypic screen (glyphosate 420-3360 g ai/ha)", "assay_type": "in vivo, Triticum aestivum", "conditions": "untransformed donor wheat", "protocol": "Four replicates of 12 T1 seeds per selected event and eight replicates (12 seeds each) of the untransformed donor wheat line Bobwhite MPB26RH were sown in 85 mm pots and grown to the 2-leaf stage under well-watered conditions at 25° C. with supplementary lighting providing a 12 hour photoperiod. The pots were placed in a randomised design to allow environmental effects to be removed during data analysis. At the 2-leaf stage, plant length and number of leaves was recorded for each plant before spraying with glyphosate. The first, second, third and fourth replicate of T1 plants for each selected event and the untransformed donor wheat line were sprayed at a dose rate of 420, 840, 1680 and 3360 g ai/ha, respectively. The fifth, sixth, seventh and eighth replicate of untransformed donor wheat line (total 48 plants) were not sprayed. At 7, 14 and 21 days after spraying, the plants were scored for plant length, number of leaves and phenotypic response to glyphosate using the scoring scale in Table 37. Any morphological abnormalities were also recorded. For scoring, the scorer was “blinded” with regard to plant genotype and spray dose rate to prevent scoring bias. Plants with delayed germination and poor establishment (criteria: plant length <6 cm) at the pre-spray scoring were excluded from subsequent analyses.\nThis differentiation was maximal at 21 days and was observed across all glyphosate dose rates. Table 41. To assess the tolerance of the transgenic events to glyphosate at each spray dose rate, null T1 plants (i.e., plants not carrying the transgene) were excluded from subsequent analyses. T1 plants with a response score of less than three at 21 days after spraying were considered to have the null genotype. […]"}, "T1 Arabidopsis [4]": {"system": "T1 Arabidopsis", "experiment": "T1 Arabidopsis response to postemergence glyphosate, visual % injury (dgt-28, dgt-32, dgt-33, dgt-3, dgt-7)", "assay_type": "in vivo, Arabidopsis thaliana", "excerpt": "Transgenic T1 Arabidopsis plants containing the dgt-28 transgene were sprayed with differing rates of glyphosate. Elevated rates were applied in this study to determine the relative levels of resistance (105, 420, 1,680 or 3,360 g ae/ha). A typical 1× usage rate of glyphosate that will control non-transformed Arabidopsis is 420 g ae/ha. […] The T1 Arabidopsis plants that were used in this study were variable copy number for the dgt-28 transgene. The low copy dgt-28 T1 Arabidopsis plants were self-pollinated and used to produce T2 plants.\nThe Arabidopsis T1 transformants were first selected from the background of untransformed seed using a glufosinate selection scheme. Three flats or 30,000 seed were analyzed for each T1 construct. The T1 plants selected above were molecularly characterized and representative plants with variable copy number were subsequently transplanted to individual pots and sprayed with various rates of commercial glyphosate as previously described. The response of these plants is presented in terms of % visual injury 2 weeks after treatment (WAT). […] An arithmetic mean and standard deviation is presented for each construct used for Arabidopsis transformation. The range in individual response is also indicated in the last column for each rate and transformation. Wild-type, non-transformed Arabidopsis (c.v. Columbia) served as a glyphosate sensitive control."}, "[5]": {"system": "EPSP synthase (DGT enzymes)", "experiment": "Steady-state kinetic parameters of DGT enzymes (Km for PEP, kcat/Km)", "assay_type": "biochemical", "procedure": "The enzyme activities of wild-type (WT) and mutant DGTs were measured by inorganic phosphate (Pi) production in a modified procedure described by Lanzetta et al. (1979) Anal. Bioch. […] Assays were performed in 96-well plate format in a total of 50 μL on a Spectra-Max 190 plate reader (Molecular Devices, Sunnyvale, Calif.). Typical assays contained 50 mM HEPES pH 7.5, 150 mM KCl, 2 mM DTT, and 1 mM S3P. […] Assays were initiated by addition of the DGT enzyme at concentrations that varied between 0.01-1 μM. Reactions were terminated by the addition of 235 μL of a 3:1 mixture of malachite green: ammonium molybdate solution. After complete color development (˜1 minute), the absorbance change at 660 nm was recorded and the amount of Pi formed was calculated from a standard curve. Control reactions lacking enzyme were used to correct for background absorbance. […] The data were fitted to the Michaelis-Menten equation which allowed for the determination of Km and Vmax (Equation 3) while IC50 was determined from Equation 4, where y is the relative activity and s is the Hill coefficient. Data were analyzed using GRAFIT™ version 5 software (Erithacus Software Limited, Horley, U.K.)."}, "[6]": {"conditions": "420 g ai/ha, Replicate 1, 10 plants pre-spray"}, "[7]": {"conditions": "840 g ai/ha, Replicate 2, 10 plants pre-spray"}, "[8]": {"conditions": "1680 g ai/ha, Replicate 3, 11 plants pre-spray"}, "[9]": {"conditions": "3360 g ai/ha, Replicate 4, 10 plants pre-spray"}}}
{"molecule": "O=C(O)CNCP(=O)(O)O", "note": "[glyphosate, N-(phosphonomethyl) glycine]", "values": [{"measurement": "glyphosate concentration sufficient to inhibit cell growth", "setting": "[1]", "value": "≥ 0.25", "unit": "mM"}, {"measurement": "effective dose to distinguish sensitive plants from ones with meaningful levels of resistance", "setting": "T1 Arabidopsis [2]; Arabidopsis", "value": 26.25, "unit": "g ae/ha"}, {"measurement": "glyphosate rate controlling non-transformed plants", "setting": "T0 corn", "value": "≥ 280", "unit": "g ae/ha"}, {"measurement": "No. surviving plants at 14 days after spraying", "setting": "[3]; [6]", "value": 0}, {"measurement": "No. surviving plants at 21 days after spraying", "setting": "[3]; [6]", "value": 0}, {"measurement": "No. surviving plants at 14 days after spraying", "setting": "[3]; [7]", "value": 3}, {"measurement": "No. surviving plants at 21 days after spraying", "setting": "[3]; [7]", "value": 0}, {"measurement": "No. surviving plants at 14 days after spraying", "setting": "[3]; [8]", "value": 0}, {"measurement": "No. surviving plants at 21 days after spraying", "setting": "[3]; [8]", "value": 0}, {"measurement": "No. surviving plants at 14 days after spraying", "setting": "[3]; [9]", "value": 1}, {"measurement": "No. surviving plants at 21 days after spraying", "setting": "[3]; [9]", "value": 0}, {"measurement": "typical 1× usage rate of glyphosate that will control non-transformed Arabidopsis", "setting": "T1 Arabidopsis [4]", "value": 420, "unit": "g ae/ha"}]}
{"molecule": "B1", "values": [{"measurement": "tolerance to glyphosate", "setting": "T1 Arabidopsis [2]; T1 Arabidopsis, DGT-31 with TraP23, DGT-32, DGT-33 with TraP8, TraP14, TraP24", "value": "slight herbicide tolerance"}]}
{"molecule": "B2", "values": [{"measurement": "catalytic efficiency", "setting": "[5]", "value": 132000, "unit": "M⁻¹ s⁻¹"}, {"measurement": "Km", "setting": "[5]; read-out: KM^PEP", "value": 91.6, "unit": "µM"}]}
